Assays:
Assay type in all cases: ADME, organism-based
[1] = Half life in Sprague-Dawley rat 1 mg/kg, iv; parameters: dose 1 mg/kg, route intravenous; details: in vivo
[2] = Half life in CD-1 mouse 1 mg/kg, iv; parameters: dose 1 mg/kg, route intravenous; details: in vivo
[3] = AUC (0 to t) in Sprague-Dawley rat 1 mg/kg, iv; parameters: dose 1 mg/kg, route intravenous; details: plasma
[4] = AUC (0 to t) in CD-1 mouse 1 mg/kg, iv; parameters: dose 1 mg/kg, route intravenous; details: plasma
[5] = Volume of distribution in Sprague-Dawley rat 1 mg/kg, iv; parameters: dose 1 mg/kg, route intravenous; details: in vivo
[6] = Volume of distribution in CD-1 mouse 1 mg/kg, iv; parameters: dose 1 mg/kg, route intravenous; details: in vivo
[7] = Clearance in Sprague-Dawley rat 1 mg/kg, iv; parameters: dose 1 mg/kg, route intravenous; details: in vivo
[8] = Clearance in CD-1 mouse 1 mg/kg, iv; parameters: dose 1 mg/kg, route intravenous; details: in vivo
Rattus norvegicus = assay: Cmax in Sprague-Dawley rat 5 mg/kg, po; parameters: dose 5 mg/kg, route oral; details: in vivo
Mus musculus = assay: Cmax in CD-1 mouse 10 mg/kg, po; parameters: dose 10 mg/kg, route oral; details: in vivo
[9] = Tmax in Sprague-Dawley rat 5 mg/kg, po; parameters: dose 5 mg/kg, route oral; details: in vivo
[10] = Tmax in CD-1 mouse 10 mg/kg, po; parameters: dose 10 mg/kg, route oral; details: in vivo
[11] = Half life in CD-1 mouse 10 mg/kg, po; parameters: dose 10 mg/kg, route oral; details: in vivo
[12] = AUC (0 to t) in Sprague-Dawley rat 5 mg/kg, po; parameters: dose 5 mg/kg, route oral; details: plasma
[13] = AUC (0 to t) in CD-1 mouse 10 mg/kg, po; parameters: dose 10 mg/kg, route oral; details: plasma
[14] = Oral bioavailability in Sprague-Dawley rat 5 mg/kg; details: in vivo
[15] = Oral bioavailability in CD-1 mouse 10 mg/kg; details: in vivo
[16] = Plasma concentration in mouse bearing ALK-positive tumor xenografts at 30 mg/kg, po up to 12 hrs; parameters: dose 30 mg/kg, route oral

- half-life [1]: 48 min
- half-life [2]: 42 min
- AUC(0-t) [3]: 1020 ng·h/mL
- AUC(0-t) [4]: 830 ng·h/mL
- Vd [5]: 1.1 L/kg
- Vd [6]: 1.2 L/kg
- clearance [7]: 16 mL/min/kg
- clearance [8]: 20 mL/min/kg
- Cmax (Rattus norvegicus): 306 ng/mL
- Cmax (Mus musculus): 1190 ng/mL
- Tmax [9]: 198 min
- Tmax [10]: 30 min
- half-life [11]: 186 min
- AUC(0-t) [12]: 1400 ng·h/mL
- AUC(0-t) [13]: 3900 ng·h/mL
- bioavailability [14]: 30%
- bioavailability [15]: 64%
- concentration at 12 h [16]: 3000 nM
Structure (SMILES): COc1cc2c(cc1Nc1ncc(Cl)c(Nc3ccc(N4CCOCC4)cc3OC)n1)CCN(CC(=O)N(C)C)CC2

From ChEMBL document CHEMBL1641404 (Bioorg Med Chem Lett, 2011)
